How the values were obtained:
[1] = design: method as in PMID 19161452, PMID 23438125; conditions: elimination in the cat; cited from earlier work
cats = test: Clinical chemistry (target animal safety study); assay type: in vivo, cat; conditions: for Total Bilirubin (mean ± SD) / GGT (mean ± SD) / AST (mean ± SD) / Creatine Kinase (mean ± SD) / Creatinine (mean ± SD) / Albumin/Globulin Ratio (mean ± SD) / Globulin (mean ± SD) / Albumin (mean ± SD) / Potassium (mean ± SD) / Total Protein (mean ± SD) / Phosphorus (mean ± SD) / Calcium (mean ± SD) / Triglyceride (mean ± SD) / Urea Nitrogen (mean ± SD) / ALT (mean ± SD) / Alkaline Phosphatase (mean ± SD) / Glucose (mean ± SD) / Cholesterol (mean ± SD) / Chloride (mean ± SD) / Sodium (mean ± SD): post-treatment, average of days 13 and 37; for Total Bilirubin (mean ± SD): reference range 0 - 0.3; for GGT (mean ± SD): reference range 0 – 2; for GGT (mean ± SD) / Albumin/Globulin Ratio (mean ± SD): significant treatment x sex and treatment x time effects (p<0.1); for AST (mean ± SD): reference range 0 – 55; for AST (mean ± SD) / Triglyceride (mean ± SD): significant treatment x sex effect (p<0.1); for Creatine Kinase (mean ± SD): reference range 0 – 1213; for Creatinine (mean ± SD): reference range 0.5 - 1.3; for Albumin/Globulin Ratio (mean ± SD): reference range 0.9 - 1.5; for Globulin (mean ± SD): reference range 2.1 - 3.3; for Albumin (mean ± SD): reference range 2.9 - 3.7; for Potassium (mean ± SD): reference range 4.6 - 7.4, significant treatment x time effect (p<0.1); for Total Protein (mean ± SD): reference range 5.4 - 6.7; for Phosphorus (mean ± SD): reference range 6.2 - 9.7, significant (p<0.1); for Calcium (mean ± SD): reference range 9.6 - 11.5; for Triglyceride (mean ± SD): reference range 12 – 64; for Urea Nitrogen (mean ± SD): reference range 15 – 35; for ALT (mean ± SD): reference range 27 – 103; for Alkaline Phosphatase (mean ± SD): reference range 50 – 186; for Glucose (mean ± SD): reference range 55 - 159; for Cholesterol (mean ± SD): reference range 88 – 148; for Chloride (mean ± SD): reference range 112 – 123; for Sodium (mean ± SD): reference range 146 – 160
Procedure: The upper lip was everted and a Surgicutt incision device was used to create a small incision (approximately 1 mm in depth and 3.5 mm in length). Blood flow from the incision site was blotted using filter paper below the incision. The elapsed time from the triggering of the device until blood no longer appeared on the filter paper was recorded as the bleed time. […] Blood samples (3.0 mL) were collected from the jugular vein into tubes containing K3EDTA for evaluation of hematology parameters, sodium citrate for evaluation of coagulation parameters, and serum separators with no anticoagulant for the clinical chemistry samples. […] Coagulation variables were determined using a Stago Compact (Diagnostica Stago, Parsippany, NJ, US), clinical chemistry variables were determined using an Olympus AU2700 or AU640e (Olympus Diagnostics, Southall, UK), and urinalysis variables were determined using a […]-500 or Atlas (Siemens, Munich, Germany), Reichert VET 360 (Reichert Technologies, Buffalo, New York, USA), or light microscope. Post-treatment values were analyzed using […], with treatment group, sex, time, and their interactions as fixed model effects and the pre-treatment value measured closest to dosing as a covariate. Repeated measurements in the same animal were modeled using a compound symmetry or heterogeneous compound symmetry correlation structure (for food consumption: autoregressive first-order or heterogeneous autoregressive first-order); the model with the smallest Akaike's Information Criterion was selected for each outcome. If any of the interactions involving treatment was significant (p < 0.1 for the two-factor interactions or p < 0.05 for the three-factor interaction), it was inappropriate to evaluate the main or overall treatment effect independently of the interacting factor and, as such, treatment comparisons were conducted for each level of the interacting factor. If none of the interactions involving treatment were significant, overall treatment differences were assessed.

[2] = 1X (oral ≥2.4, SC 2.0 mg/kg/day)
[3] = 2X (oral ≥4.8, SC 4.0 mg/kg/day)
[4] = 3X (oral ≥7.2, SC 6.0 mg/kg/day)

For `CCc1ccc(Nc2c(F)c(F)cc(F)c2F)c(CC(=O)O)c1` [robenacoxib], the half-life [1] is listed as “less than 2 hours”, the “Total Bilirubin (mean ± SD)” value (cats; [2]) is listed as 0.18 ± 0.04 mg/dL and the “GGT (mean ± SD)” value (cats; [2]) is listed as 1.14 ± 0.43 U/L. For the same compound, the “AST (mean ± SD)” value (cats; [2]) was 22.2 ± 8.6 U/L, the “Creatine Kinase (mean ± SD)” value (cats; [2]) was 1479 ± 1901 U/L and the “Creatinine (mean ± SD)” value (cats; [2]) was 0.86 ± 0.13 mg/dL. The “Albumin/Globulin Ratio (mean ± SD)” value (cats; [2]) was 1.29 ± 0.14, the “Globulin (mean ± SD)” value (cats; [2]) was 2.62 ± 0.23 g/dL and the “Albumin (mean ± SD)” value (cats; [2]) was 3.31 ± 0.21 g/dL. For the same compound, the “Potassium (mean ± SD)” value (cats; [2]) was 5.40 ± 0.24 mEq/L, the “Total Protein (mean ± SD)” value (cats; [2]) was 5.93 ± 0.28 g/dL and the “Phosphorus (mean ± SD)” value (cats; [2]) was 8.86 ± 0.76 mg/dL. For the same compound, the “Calcium (mean ± SD)” value (cats; [2]) was 10.01 ± 0.31 mg/dL, the “Triglyceride (mean ± SD)” value (cats; [2]) was 40.1 ± 27.2 mg/dL and the “Urea Nitrogen (mean ± SD)” value (cats; [2]) was 25.3 ± 2.7 mg/dL. For the same compound, the “ALT (mean ± SD)” value (cats; [2]) was 54.6 ± 9.2 U/L, the “Alkaline Phosphatase (mean ± SD)” value (cats; [2]) was 105.6 ± 40.6 U/L and the “Glucose (mean ± SD)” value (cats; [2]) was 85.1 ± 7.1 mg/dL. The “Cholesterol (mean ± SD)” value (cats; [2]) was 105.0 ± 18.1 mg/dL, the “Chloride (mean ± SD)” value (cats; [2]) was 116.63 ± 1.50 mEq/L and the “Sodium (mean ± SD)” value (cats; [2]) was 150.3 ± 1.3 mEq/L. The “Total Bilirubin (mean ± SD)” value (cats; [3]) was 0.19 ± 0.03 mg/dL, the “GGT (mean ± SD)” value (cats; [3]) was 1.33 ± 0.65 U/L and the “AST (mean ± SD)” value (cats; [3]) was 22.0 ± 4.1 U/L. For the same compound, the “Creatine Kinase (mean ± SD)” value (cats; [3]) was 975 ± 903 U/L, the “Creatinine (mean ± SD)” value (cats; [3]) was 0.85 ± 0.12 mg/dL and the “Albumin/Globulin Ratio (mean ± SD)” value (cats; [3]) was 1.36 ± 0.14. The “Globulin (mean ± SD)” value (cats; [3]) was 2.57 ± 0.28 g/dL, the “Albumin (mean ± SD)” value (cats; [3]) was 3.46 ± 0.17 g/dL and the “Potassium (mean ± SD)” value (cats; [3]) was 5.33 ± 0.41 mEq/L. The “Total Protein (mean ± SD)” value (cats; [3]) was 6.03 ± 0.35 g/dL, the “Phosphorus (mean ± SD)” value (cats; [3]) was 8.18 ± 0.83 mg/dL and the “Calcium (mean ± SD)” value (cats; [3]) was 10.16 ± 0.26 mg/dL. For the same compound, the “Triglyceride (mean ± SD)” value (cats; [3]) was 32.4 ± 9.1 mg/dL, the “Urea Nitrogen (mean ± SD)” value (cats; [3]) was 24.8 ± 4.0 mg/dL and the “ALT (mean ± SD)” value (cats; [3]) was 56.6 ± 9.4 U/L. For the same compound, the “Alkaline Phosphatase (mean ± SD)” value (cats; [3]) was 94.5 ± 24.4 U/L, the “Glucose (mean ± SD)” value (cats; [3]) was 84.1 ± 9.0 mg/dL and the “Cholesterol (mean ± SD)” value (cats; [3]) was 103.9 ± 14.2 mg/dL. For the same compound, the “Chloride (mean ± SD)” value (cats; [3]) was 115.88 ± 1.71 mEq/L, the “Sodium (mean ± SD)” value (cats; [3]) was 150.5 ± 1.4 mEq/L and the “phosphorus relative to controls (pairwise comparison, pooled samples over all time points)” value (cats; 2X group, not considered clinically relevant) was “decrease”. For the same compound, the “Total Bilirubin (mean ± SD)” value (cats; [4]) was 0.19 ± 0.03 mg/dL, the “GGT (mean ± SD)” value (cats; [4]) was 0.94 ± 0.05 U/L and the “AST (mean ± SD)” value (cats; [4]) was 22.8 ± 6.8 U/L. The “Creatine Kinase (mean ± SD)” value (cats; [4]) was 1763 ± 2175 U/L, the “Creatinine (mean ± SD)” value (cats; [4]) was 0.79 ± 0.12 mg/dL and the “Albumin/Globulin Ratio (mean ± SD)” value (cats; [4]) was 1.32 ± 0.16. For the same compound, the “Globulin (mean ± SD)” value (cats; [4]) was 2.66 ± 0.29 g/dL, the “Albumin (mean ± SD)” value (cats; [4]) was 3.44 ± 0.18 g/dL and the “Potassium (mean ± SD)” value (cats; [4]) was 5.50 ± 0.43 mEq/L. The “Total Protein (mean ± SD)” value (cats; [4]) was 6.10 ± 0.34 g/dL, the “Phosphorus (mean ± SD)” value (cats; [4]) was 8.66 ± 0.78 mg/dL and the “Calcium (mean ± SD)” value (cats; [4]) was 10.17 ± 0.26 mg/dL. For the same compound, the “Triglyceride (mean ± SD)” value (cats; [4]) was 37.7 ± 14.7 mg/dL, the “Urea Nitrogen (mean ± SD)” value (cats; [4]) was 25.2 ± 3.9 mg/dL and the “ALT (mean ± SD)” value (cats; [4]) was 55.3 ± 10.5 U/L. The “Alkaline Phosphatase (mean ± SD)” value (cats; [4]) was 90.0 ± 19.5 U/L, the “Glucose (mean ± SD)” value (cats; [4]) was 83.1 ± 6.2 mg/dL and the “Cholesterol (mean ± SD)” value (cats; [4]) was 112.6 ± 23.7 mg/dL. For the same compound, the “Chloride (mean ± SD)” value (cats; [4]) was 115.81 ± 1.97 mEq/L and the “Sodium (mean ± SD)” value (cats; [4]) was 150.6 ± 1.5 mEq/L.

Source: publication PMC7520961, “Safety evaluation of the interchangeable use of robenacoxib in commercially-available tablets and solution for injection in cats” (BMC Veterinary Research, 2020)
